According to ChEMBL document CHEMBL4373724, “An overview of recent progress in siderophore-antibiotic conjugates” (2019):
In brackets after ≈: the same amount, converted by molar mass.

How the values were obtained:
Assay type in all cases: functional
[1] = tested on: Mycobacterium tuberculosis; assay: Antitubercular activity against multi drug resistant Mycobacterium tuberculosis isolate 1
[2] = tested on: Mycobacterium tuberculosis; assay: Antitubercular activity against multi drug resistant Mycobacterium tuberculosis isolate 2
[3] = tested on: Mycobacterium tuberculosis; assay: Antitubercular activity against multi drug resistant Mycobacterium tuberculosis isolate 3
[4] = tested on: Mycobacterium tuberculosis; assay: Antitubercular activity against multi drug resistant Mycobacterium tuberculosis isolate 4
[5] = tested on: Mycobacterium tuberculosis; assay: Antitubercular activity against multi drug resistant Mycobacterium tuberculosis isolate 5
[6] = tested on: Mycobacterium tuberculosis; assay: Antitubercular activity against multi drug resistant Mycobacterium tuberculosis isolate 6
[7] = tested on: Mycobacterium tuberculosis; assay: Antitubercular activity against multi drug resistant Mycobacterium tuberculosis isolate 7
[8] = tested on: Mycobacterium tuberculosis; assay: Antitubercular activity against extensively drug resistant Mycobacterium tuberculosis isolate 8
[9] = tested on: Mycobacterium tuberculosis; assay: Antitubercular activity against extensively drug resistant Mycobacterium tuberculosis isolate 9
[10] = tested on: Mycobacterium tuberculosis; assay: Antitubercular activity against extensively drug resistant Mycobacterium tuberculosis isolate 10
[11] = tested on: Mycobacterium tuberculosis; assay: Antitubercular activity against extensively drug resistant Mycobacterium tuberculosis isolate 11

Question: `CCCCCCCCCCCCCCCCC(=O)N(O)CCCC[C@H](NC(=O)[C@@H]1COC(c2ccccc2O)=N1)C(=O)NC[C@H](NC(=O)CCCO[C@H]1O[C@@H]2O[C@@]3(C)CC[C@H]4[C@H](C)CC[C@@H]([C@H]1C)[C@@]24OO3)C(=O)N[C@H]1CCCCN(O)C1=O` was tested. Which MIC [1] did it give?
Answer: 1.25 µg/mL (≈ 1.07 µM)

Question: What about the MIC [2] of the same molecule?
Answer: 0.625 µg/mL (≈ 0.535 µM)

Question: What about the MIC [3] of the same molecule?
Answer: 0.625 µg/mL (≈ 0.535 µM)

Question: And the MIC [4]?
Answer: 0.625 µg/mL (≈ 0.535 µM)

Question: What about the MIC [5] of the same molecule?
Answer: 0.156 to 0.312 µg/mL (≈ 0.134 to 0.267 µM)

Question: What about the MIC [6] of the same molecule?
Answer: 0.625 µg/mL (≈ 0.535 µM)

Question: And the MIC [7]?
Answer: 0.312 µg/mL (≈ 0.267 µM)

Question: And the MIC [8]?
Answer: 0.31 µg/mL (≈ 0.265 µM)

Question: And the MIC [9]?
Answer: 0.078 µg/mL (≈ 0.0668 µM)

Question: And the MIC [10]?
Answer: 0.625 µg/mL (≈ 0.535 µM)

Question: And the MIC [11]?
Answer: 0.31 µg/mL (≈ 0.265 µM)
